The results in this text go back to publication PMC3794980, “Identification of Conserved and HLA Promiscuous DENV3 T-Cell Epitopes” (PLoS Neglected Tropical Diseases, 2013).

The target of assay [1] is DRB3*0101 (Homo sapiens, UniProt P01903+P79483). As to the kind of experiment: biochemical. The assay is classed as binding.
The target in assay [2] is DRB5*0101 (Homo sapiens, UniProt P01903+Q30154). Kind of assay: biochemical. The assay is classed as binding.

In assay [1], `CC[C@H](C)[C@H](NC(=O)[C@@H](NC(=O)[C@H](CCCNC(=N)N)NC(=O)[C@H](CC(=O)O)NC(=O)[C@H](C)NC(=O)[C@H](CCCCN)NC(=O)[C@H](Cc1ccccc1)NC(=O)[C@@H](N)CC(N)=O)C(C)C)C(=O)N[C@@H](CC(=O)O)C(=O)N1CCC[C@H]1C(=O)N[C@@H](CCCNC(=N)N)C(=O)N[C@@H](CCCNC(=N)N)C(=O)N[C@@H](CS)C(=O)N[C@@H](CC(C)C)C(=O)N[C@@H](CCCCN)C(=O)O` [NS3 417-431] came in with an IC50 of 0.632 µM.
`CC[C@H](C)[C@H](NC(=O)[C@@H]1CCCN1C(=O)[C@H](CO)NC(=O)CNC(=O)[C@H](CO)NC(=O)[C@@H](NC(=O)CNC(=O)[C@@H]1CCCN1C(=O)[C@H](CCCCN)NC(=O)[C@H](Cc1ccccc1)NC(=O)[C@H](CC(=O)O)NC(=O)[C@H](CC(C)C)NC(=O)[C@H](C)NC(=O)[C@@H](NC(=O)[C@H](C)N)[C@@H](C)CC)[C@@H](C)O)C(=O)O` [NS3 125-139]: the IC50 is 9.22 µM in assay [1] and 4.35 µM in assay [2].
Turning to `CC[C@H](C)[C@H](NC(=O)[C@@H](NC(=O)[C@@H](N)Cc1ccccc1)[C@@H](C)CC)C(=O)N[C@@H](CC(=O)O)C(=O)NCC(=O)N1CCC[C@H]1C(=O)N[C@@H](CC(N)=O)C(=O)N[C@H](C(=O)N1CCC[C@H]1C(=O)N[C@@H](CCC(=O)O)C(=O)N[C@@H](CS)C(=O)N1CCC[C@H]1C(=O)N[C@@H](CO)C(=O)N[C@@H](C)C(=O)N[C@@H](CO)C(=O)O)[C@@H](C)O` [NS1 133-147], the IC50 in assay [2] was 6.91 µM.
Molecule `CC[C@H](C)[C@H](NC(=O)[C@@H](NC(=O)[C@H](CC(C)C)NC(=O)[C@H](CC(N)=O)NC(=O)[C@H](CCCNC(=N)N)NC(=O)[C@H](CCCCN)NC(=O)[C@H](CCCCN)NC(=O)[C@H](Cc1ccccc1)NC(=O)[C@H](CCSC)NC(=O)[C@H](CCC(=O)O)NC(=O)[C@H](CCC(=O)O)NC(=O)[C@H](CCC(=O)O)NC(=O)[C@H](CC(C)C)NC(=O)[C@H](CCC(=O)O)NC(=O)[C@@H]1CCCN1)[C@@H](C)O)C(=O)O` [NS3 177-191] returned an IC50 in assay [1] of 10.7 µM.
`CSCC[C@H](NC(=O)[C@H](C)NC(=O)[C@H](CCSC)NC(=O)[C@H](CCC(N)=O)NC(=O)[C@@H](NC(=O)[C@@H](NC(=O)[C@H](CCSC)NC(=O)[C@@H]1CCCN1C(=O)[C@@H](NC(=O)[C@@H](NC(=O)[C@H](CC(=O)O)NC(=O)[C@H](Cc1c[nH]c2ccccc12)NC(=O)[C@@H]1CCCN1)C(C)C)C(C)C)C(C)C)[C@@H](C)O)C(=O)N[C@H](C(=O)N[C@@H](CC(=O)O)C(=O)N[C@H](C(=O)N[C@H](C(=O)O)[C@@H](C)O)[C@@H](C)O)[C@@H](C)O` [NS5 330-346] showed an IC50 in assay [2] of 1.04 µM. In other words, the single-digit micromolar range.
For `CC[C@H](C)[C@H](NC(=O)[C@H](CCCCN)NC(=O)[C@H](CCCCN)NC(=O)[C@H](CCC(=O)O)NC(=O)[C@H](CC(C)C)NC(=O)[C@@H]1CCCN1C(=O)[C@H](Cc1c[nH]cn1)NC(=O)[C@@H]1CCCN1C(=O)[C@H](CC(N)=O)NC(=O)[C@H](CCC(=O)O)NC(=O)[C@H](CC(C)C)NC(=O)[C@H](CC(=O)O)NC(=O)[C@H](C)NC(=O)[C@@H](N)CCCCN)C(=O)N[C@H](C(=O)N[C@@H](CCC(N)=O)C(=O)N[C@@H](Cc1c[nH]c2ccccc12)C(=O)O)[C@@H](C)O` [NS5 630-646], the IC50 is 13.7 µM in assay [1] and 15.5 µM in assay [2].
The matching figures for `CC[C@H](C)[C@H](NC(=O)[C@@H](NC(=O)[C@@H]1CCCN1C(=O)[C@@H](N)CO)[C@@H](C)CC)C(=O)N[C@@H](CC(N)=O)C(=O)N[C@@H](CCCNC(=N)N)C(=O)N[C@@H](CCC(=O)O)C(=O)NCC(=O)N[C@@H](CCCCN)C(=O)N[C@H](C(=O)N[C@H](C(=O)NCC(=O)N[C@@H](CC(C)C)C(=O)N[C@@H](Cc1ccc(O)cc1)C(=O)NCC(=O)O)C(C)C)C(C)C` [NS3 137-151]: 9.58 µM and 1.68 µM.
The like results for `CC(C)C[C@H](NC(=O)CNC(=O)[C@H](CCC(=O)O)NC(=O)CNC(=O)[C@H](CCC(=O)O)NC(=O)[C@@H](NC(=O)CNC(=O)[C@H](CO)NC(=O)[C@H](Cc1ccc(O)cc1)NC(=O)[C@H](CO)NC(=O)[C@H](CC(N)=O)NC(=O)[C@H](CCC(=O)O)NC(=O)[C@H](CCCNC(=N)N)NC(=O)[C@H](CO)NC(=O)[C@H](Cc1ccccc1)NC(=O)[C@H](Cc1c[nH]c2ccccc12)NC(=O)[C@@H](N)Cc1c[nH]cn1)C(C)C)C(=O)O` [NS5 495-511] were, in that order, 1.16 µM and 0.723 µM.
The matching figures for `CC[C@H](C)[C@H](N)C(=O)N[C@@H](Cc1ccccc1)C(=O)N[C@@H](CCSC)C(=O)N[C@H](C(=O)N[C@@H](C)C(=O)N[C@H](C(=O)N1CCC[C@H]1C(=O)N1CCC[C@H]1C(=O)NCC(=O)N[C@H](C(=O)N[C@@H](C)C(=O)N[C@@H](CC(=O)O)C(=O)N[C@@H](C)C(=O)N[C@@H](Cc1ccccc1)C(=O)N1CCC[C@H]1C(=O)O)[C@@H](C)O)[C@@H](C)O)[C@@H](C)O` [NS3 313-327]: 9.44 µM and 13.9 µM.
In the case of `CC[C@H](C)[C@H](NC(=O)CNC(=O)[C@H](CO)NC(=O)CNC(=O)[C@H](CS)NC(=O)[C@H](CCCCN)NC(=O)[C@H](CC(C)C)NC(=O)[C@H](CCC(=O)O)NC(=O)[C@H](CCCCN)NC(=O)CNC(=O)[C@H](CCCCN)NC(=O)[C@H](Cc1c[nH]c2ccccc12)NC(=O)[C@H](CC(N)=O)NC(=O)[C@@H](NC(=O)[C@@H](N)C(C)C)[C@@H](C)CC)C(=O)O` [NS1 5-19], the IC50 was 6.3 µM in assay [1] and 15.8 µM in assay [2].
Turning to `CC[C@H](C)[C@H](NC(=O)[C@H](CC(=O)O)NC(=O)[C@@H](NC(=O)[C@@H](NC(=O)[C@@H](NC(=O)[C@@H](NC(=O)[C@@H](N)Cc1ccccc1)C(C)C)C(C)C)[C@@H](C)O)[C@@H](C)O)C(=O)N[C@@H](CO)C(=O)N[C@@H](CCC(=O)O)C(=O)N[C@@H](CCSC)C(=O)NCC(=O)N[C@@H](C)C(=O)N[C@@H](CC(N)=O)C(=O)N[C@@H](Cc1ccccc1)C(=O)N[C@@H](CCCCN)C(=O)O` [NS3 405-419], it took 1.59 µM to reach half-maximal inhibition in assay [1] (IC50).
Consider `CC(C)[C@H](NC(=O)[C@H](CCC(=O)O)NC(=O)[C@H](Cc1ccc(O)cc1)NC(=O)[C@H](CO)NC(=O)CNC(=O)[C@H](Cc1c[nH]cn1)NC(=O)[C@H](Cc1ccc(O)cc1)NC(=O)[C@H](C)NC(=O)[C@H](Cc1c[nH]c2ccccc12)NC(=O)[C@@H](N)[C@@H](C)O)C(=O)N[C@@H](CCCCN)C(=O)N[C@@H](C)C(=O)N[C@H](C(=O)NCC(=O)N[C@@H](CO)C(=O)N[C@@H](C)C(=O)O)[C@@H](C)O` [NS5 301-316], for which the IC50 is 0.536 µM in assay [1] and 1.83 µM in assay [2].
As for `CC[C@H](C)[C@H](NC(=O)[C@H](CO)NC(=O)[C@@H]1CCCN1C(=O)[C@@H](NC(=O)[C@H](Cc1ccccc1)NC(=O)[C@H](Cc1c[nH]c2ccccc12)NC(=O)[C@@H](NC(=O)[C@@H](NC(=O)[C@H](CCCCN)NC(=O)CN)[C@@H](C)O)C(C)C)C(C)C)C(=O)N[C@@H](CCCCN)C(=O)N[C@@H](C)C(=O)NCC(=O)N[C@@H](CC(N)=O)C(=O)N[C@@H](CC(=O)O)C(=O)O` [NS3 357-371], half-maximal inhibition in assay [2] (IC50) was put at 0.273 µM.
With `CC[C@H](C)[C@H](NC(=O)CNC(=O)[C@H](CO)NC(=O)[C@H](CCCCN)NC(=O)[C@@H](N)CCCCN)C(=O)N[C@H](C(=O)N[C@@H](CCC(=O)O)C(=O)N[C@H](C(=O)N[C@@H](CC(=O)O)C(=O)N[C@@H](CCCNC(=N)N)C(=O)N[C@H](C(=O)N[C@@H](CCC(=O)O)C(=O)N[C@@H](C)C(=O)N[C@@H](CCCCN)C(=O)N[C@@H](CCC(=O)O)C(=O)NCC(=O)N[C@@H](CC(C)C)C(=O)O)[C@@H](C)O)C(C)C)[C@@H](C)O` [NS5 29-45], in assay [1], half-maximal inhibition (IC50) required 5.38 µM. That is a single-digit micromolar value.
Same read-out and setting: to `CC[C@H](C)[C@H](NC(=O)[C@@H]1CCCN1C(=O)[C@H](CCCCN)NC(=O)[C@@H](NC(=O)[C@@H](NC(=O)[C@H](CS)NC(=O)[C@@H](N)CC(=O)O)C(C)C)C(C)C)C(=O)N[C@@H](CC(=O)O)C(=O)N[C@@H](CC(=O)O)C(=O)N[C@@H](CCCNC(=N)N)C(=O)N[C@@H](Cc1ccccc1)C(=O)N[C@@H](C)C(=O)N[C@@H](CC(N)=O)C(=O)N[C@@H](C)C(=O)N[C@@H](CC(C)C)C(=O)N[C@@H](CC(C)C)C(=O)N[C@@H](C)C(=O)O` [NS5 664-680] belongs 4.09 µM.
On the same count and under the same terms, to `CC[C@H](C)[C@H](NC(=O)CNC(=O)[C@@H](NC(=O)[C@H](C)NC(=O)[C@@H](NC(=O)[C@H](CS)NC(=O)[C@@H](N)CO)[C@@H](C)CC)[C@@H](C)CC)C(=O)N[C@H](C(=O)N[C@H](C(=O)N[C@@H](CC(C)C)C(=O)N[C@@H](Cc1ccc(O)cc1)C(=O)N[C@@H](CC(C)C)C(=O)NCC(=O)N[C@@H](C)C(=O)N[C@H](C(=O)N[C@H](C(=O)N[C@@H](CCC(N)=O)C(=O)N[C@@H](C)C(=O)O)C(C)C)C(C)C)[C@@H](C)O)[C@@H](C)CC` [Envelope 476-493] belongs 3.83 µM.
Same read-out and setting: to `CC[C@H](C)[C@H](NC(=O)[C@H](Cc1ccc(O)cc1)NC(=O)[C@H](CCC(N)=O)NC(=O)[C@H](CC(=O)O)NC(=O)[C@H](CC(N)=O)NC(=O)[C@H](CCC(=O)O)NC(=O)[C@H](CCCCN)NC(=O)[C@H](CCC(N)=O)NC(=O)[C@@H]1CCCN1C(=O)[C@@H](N)CC(N)=O)C(=O)N[C@@H](Cc1ccccc1)C(=O)N[C@H](C(=O)NCC(=O)N[C@@H](CCC(N)=O)C(=O)N1CCC[C@H]1C(=O)O)[C@@H](C)O` [NS3 465-479] belongs 10.6 µM.
For `CC(C)C[C@H](NC(=O)[C@H](CC(=O)O)NC(=O)[C@H](Cc1ccccc1)NC(=O)[C@@H](N)Cc1ccccc1)C(=O)N1CCC[C@H]1C(=O)N[C@@H](CC(C)C)C(=O)N1CCC[C@H]1C(=O)N[C@@H](Cc1c[nH]c2ccccc12)C(=O)N[C@H](C(=O)N[C@@H](CO)C(=O)NCC(=O)N[C@@H](C)C(=O)N[C@H](C(=O)N[C@H](C(=O)N[C@@H](CCC(=O)O)C(=O)O)[C@@H](C)O)[C@@H](C)O)[C@@H](C)O` [Envelope 211-225], the IC50 in assay [2] was 16.2 µM. This lies in the double-digit micromolar range.
`CC[C@H](C)[C@H](NC(=O)[C@H](CS)NC(=O)[C@H](Cc1ccccc1)NC(=O)[C@H](CCC(N)=O)NC(=O)[C@H](CC(N)=O)NC(=O)[C@H](CC(N)=O)NC(=O)[C@H](CCCCN)NC(=O)[C@H](CC(C)C)NC(=O)[C@H](Cc1c[nH]c2ccccc12)NC(=O)[C@@H]1CCCN1C(=O)[C@H](CCC(=O)O)NC(=O)[C@@H](NC(=O)[C@H](CCSC)NC(=O)[C@H](CCCCN)NC(=O)[C@@H](N)CC(C)C)C(C)C)C(=O)N[C@@H](CCCCN)C(=O)N[C@H](C(=O)O)C(C)C` [NS5 165-181]: the IC50 in assay [2] was 0.02 µM.

One may read the IC50 as the concentration at which inhibition is half-maximal. The low end stands for greater potency in that assay, the high end for weaker potency in that assay.
